Values joined by “and” are separate entries in the source; they are usually repeats but may differ in a detail not shown here. Equal entries are not always repeated. Values belong to the compound of their own block, whether it stands above or below them.
Experiments:
[1] = biological target: T1, Lp(a) assembly (recombinant human 16K apo(a) and apoB) (Homo sapiens, UniProt P08519); test: In vitro Lp(a) assembly assay; assay type: biochemical
T1 construct: containing one KIV type 1, six KIV type 2 repeats, one each of KIV types 3–10 and one KV; expressed in transfected cells; host or cells: Conditioned medium of HEK293 (CRL-1573) stably expressing 16K apo(a), combined with conditioned medium of wild-type HepG2 (HB-8065) for endogenous apoB
T1 sequence (P08519 20-2040): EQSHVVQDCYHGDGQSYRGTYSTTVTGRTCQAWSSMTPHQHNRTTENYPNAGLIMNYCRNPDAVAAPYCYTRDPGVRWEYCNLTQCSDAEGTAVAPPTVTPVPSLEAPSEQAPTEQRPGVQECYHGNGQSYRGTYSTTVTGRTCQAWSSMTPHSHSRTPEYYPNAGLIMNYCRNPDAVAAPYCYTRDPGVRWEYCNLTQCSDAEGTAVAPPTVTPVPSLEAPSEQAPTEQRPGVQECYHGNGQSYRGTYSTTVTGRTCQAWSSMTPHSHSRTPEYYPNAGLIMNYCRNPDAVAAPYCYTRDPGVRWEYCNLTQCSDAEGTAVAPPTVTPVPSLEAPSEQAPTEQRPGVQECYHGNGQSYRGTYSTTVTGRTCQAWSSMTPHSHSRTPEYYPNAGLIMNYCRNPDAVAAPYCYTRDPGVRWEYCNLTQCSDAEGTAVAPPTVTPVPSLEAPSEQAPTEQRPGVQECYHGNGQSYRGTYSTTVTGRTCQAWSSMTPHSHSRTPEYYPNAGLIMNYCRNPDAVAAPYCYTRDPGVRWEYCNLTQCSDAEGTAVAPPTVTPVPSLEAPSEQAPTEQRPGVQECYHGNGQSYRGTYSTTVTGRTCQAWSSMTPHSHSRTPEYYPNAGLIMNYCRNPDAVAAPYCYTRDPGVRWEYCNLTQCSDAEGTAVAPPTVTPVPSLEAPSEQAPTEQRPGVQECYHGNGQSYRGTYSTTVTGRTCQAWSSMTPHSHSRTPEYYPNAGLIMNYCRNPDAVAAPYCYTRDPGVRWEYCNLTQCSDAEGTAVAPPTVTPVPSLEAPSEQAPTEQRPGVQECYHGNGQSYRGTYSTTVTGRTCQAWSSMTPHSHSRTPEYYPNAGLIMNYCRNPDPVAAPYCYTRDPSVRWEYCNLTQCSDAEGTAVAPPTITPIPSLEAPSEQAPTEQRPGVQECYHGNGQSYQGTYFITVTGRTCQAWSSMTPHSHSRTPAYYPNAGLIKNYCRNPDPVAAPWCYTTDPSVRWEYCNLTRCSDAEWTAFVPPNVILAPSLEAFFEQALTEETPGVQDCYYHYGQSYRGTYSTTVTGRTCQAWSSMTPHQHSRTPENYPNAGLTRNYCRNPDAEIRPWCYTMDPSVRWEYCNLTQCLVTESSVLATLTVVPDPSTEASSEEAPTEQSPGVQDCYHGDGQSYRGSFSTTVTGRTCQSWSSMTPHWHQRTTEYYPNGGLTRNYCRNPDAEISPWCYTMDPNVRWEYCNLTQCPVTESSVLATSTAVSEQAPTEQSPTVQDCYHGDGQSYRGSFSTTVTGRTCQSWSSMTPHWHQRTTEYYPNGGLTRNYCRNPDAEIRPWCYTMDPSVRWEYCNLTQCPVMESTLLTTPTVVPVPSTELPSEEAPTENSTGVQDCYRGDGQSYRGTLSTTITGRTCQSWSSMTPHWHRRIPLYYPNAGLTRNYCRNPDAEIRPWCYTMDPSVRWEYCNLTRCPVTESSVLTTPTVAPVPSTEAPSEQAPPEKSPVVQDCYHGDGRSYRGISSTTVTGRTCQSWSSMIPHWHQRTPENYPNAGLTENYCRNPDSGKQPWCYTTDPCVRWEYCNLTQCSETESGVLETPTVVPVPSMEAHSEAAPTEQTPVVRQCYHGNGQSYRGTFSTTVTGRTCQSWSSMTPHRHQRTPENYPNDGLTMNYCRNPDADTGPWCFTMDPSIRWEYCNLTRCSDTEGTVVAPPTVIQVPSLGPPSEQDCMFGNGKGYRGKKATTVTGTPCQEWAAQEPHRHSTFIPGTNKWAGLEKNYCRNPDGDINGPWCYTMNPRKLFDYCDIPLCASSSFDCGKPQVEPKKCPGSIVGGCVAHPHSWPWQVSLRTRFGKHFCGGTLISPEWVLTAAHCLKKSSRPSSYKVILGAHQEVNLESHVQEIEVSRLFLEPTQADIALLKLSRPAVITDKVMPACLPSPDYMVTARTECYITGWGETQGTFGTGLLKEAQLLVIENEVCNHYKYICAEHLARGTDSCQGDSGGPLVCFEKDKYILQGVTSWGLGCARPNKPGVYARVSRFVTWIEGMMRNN
Experimental: HepG2 cells (HB-8065, ATCC) were cultured in Dulbecco’s modified Eagle’s medium, supplemented with 10% fetal bovine serum, 20 mM 4-(2-hydroxyethyl)-1-piperazineethanesulfonic acid (HEPES) and 100 U ml^−1 penicillin–streptomycin. apoB-conditioned media were collected after 24 h of culture at 37 °C and 5% CO2 from confluent wild-type HepG2 cells that endogenously express and secrete apoB. Apo(a)-conditioned media were collected after 24 h of culture at 37 °C and 5% CO2 from HEK293 cells (CRL-1573, ATCC) that stably express and secrete recombinant human 16K apo(a) protein containing one KIV type 1, six KIV type 2 repeats, one each of KIV types 3–10 and one KV.
The assembly assay was conducted in 96-well polypropylene plates by combining HepG2 and apo(a)-HEK293-conditioned media in the presence of a range of compound concentrations. After a two-hour incubation period at 37 °C, the reaction was stopped by the addition of 6-aminocaproic acid. Lp(a) was detected using a sandwich enzyme-linked immunosorbent assay (ELISA), with a polyclonal goat anti-apo(a) capture antibody (Abcam ab31675) and a biotin-conjugated, polyclonal goat anti-apoB detection antibody (Abcam ab20898). In brief, ELISA plates were coated with 100 μl of the capture antibody at a 1:12,500 dilution (around 4 μg ml^−1) into HEPES-buffered saline (HBS), incubated overnight at 4 °C, washed and blocked by the addition of 200 μl of 1% casein. After removal of the blocking buffer, 20 μl of each of the assembly reactions or of a dilution series of purified human Lp(a) (Athens Research, 12-16-121601), diluted 1:5 into HBS supplemented with 0.5% casein, were added to the ELISA plate. […] Absorbance at 450 nm was measured on an Envision plate reader.
The concentration of Lp(a) formed in each test condition was determined on the basis of the standard curve constructed from the purified human Lp(a) used as a reference standard, and was normalized to high (buffer) and low (no apoB) controls. […] Data were analysed in GraphPad Prism v.9.5.1.

[2] = biological target: T2, apo(a) KIV5–8 (Homo sapiens, UniProt P08519); test: ITC binding to apo(a) KIV5–8
T2 construct: made in house
T2 sequence (P08519 1043-1470 limits assumed): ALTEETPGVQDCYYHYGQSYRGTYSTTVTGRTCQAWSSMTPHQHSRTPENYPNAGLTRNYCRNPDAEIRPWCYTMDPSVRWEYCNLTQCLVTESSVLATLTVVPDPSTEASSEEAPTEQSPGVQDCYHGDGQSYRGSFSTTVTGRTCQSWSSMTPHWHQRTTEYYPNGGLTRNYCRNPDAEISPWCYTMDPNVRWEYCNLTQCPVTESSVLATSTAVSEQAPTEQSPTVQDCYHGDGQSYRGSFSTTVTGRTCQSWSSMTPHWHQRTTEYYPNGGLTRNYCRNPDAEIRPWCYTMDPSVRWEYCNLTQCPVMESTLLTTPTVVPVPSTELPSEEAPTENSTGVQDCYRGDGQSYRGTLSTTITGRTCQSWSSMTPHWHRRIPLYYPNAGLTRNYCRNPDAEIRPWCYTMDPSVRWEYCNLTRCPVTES
Experimental: The nucleotide sequence encoding the human LPA gene (NP_005568.2) was inserted into a mammalian expression vector containing a cytomegalovirus promoter. Protein expression was performed by transient transfection of human embryonic kidney 293 (HEK293) cells cultured in serum-free medium. The culture medium was collected five days after transfection and human apo(a) protein was purified using L-lysine affinity chromatography. Nucleotide sequences encoding various KIV domains of human apo(a) and human and rat plasminogen were inserted into a pET21a Escherichia coli expression vector. Bacterial BL21(DE3) was used as the expression host, and the induction of protein expression was performed in 2× TY medium with 1 mM isopropyl β-D-1-thiogalactopyranoside at 37 °C for 5 h. Cells were collected and stored at –80 °C for subsequent protein purification and refolding. […] All protein concentrations were determined by A280.
Experiments were performed on a MicroCal Auto-iTC200 titration calorimeter (Malvern Panalytical), with a cell volume of 200 μl and a 40-μl microsyringe. […] The microsyringe was loaded with a solution of the respective compounds, with the concentration measured by quantitative nuclear magnetic resonance, and was inserted into the calorimetric cell prefilled with the respective recombinant proteins of known concentration in ITC buffer. […]

[3] = biological target: T3, plasminogen (Rattus norvegicus, UniProt Q01177); test: Rat plasma plasminogen concentration (ELISA) after oral dosing; assay type: in vivo; details: for PLG mass, Plasminogen (mean of replicates) / PLG mass, Replicate 1 / PLG mass, Replicate 2: rat plasma, individual animal
T3 construct: Plasma samples were collected via the abdominal aorta; from tissue; host or cells: Citrated plasma of orally dosed male Sprague Dawley rats
T3 sequence (Q01177 20-812 limits assumed): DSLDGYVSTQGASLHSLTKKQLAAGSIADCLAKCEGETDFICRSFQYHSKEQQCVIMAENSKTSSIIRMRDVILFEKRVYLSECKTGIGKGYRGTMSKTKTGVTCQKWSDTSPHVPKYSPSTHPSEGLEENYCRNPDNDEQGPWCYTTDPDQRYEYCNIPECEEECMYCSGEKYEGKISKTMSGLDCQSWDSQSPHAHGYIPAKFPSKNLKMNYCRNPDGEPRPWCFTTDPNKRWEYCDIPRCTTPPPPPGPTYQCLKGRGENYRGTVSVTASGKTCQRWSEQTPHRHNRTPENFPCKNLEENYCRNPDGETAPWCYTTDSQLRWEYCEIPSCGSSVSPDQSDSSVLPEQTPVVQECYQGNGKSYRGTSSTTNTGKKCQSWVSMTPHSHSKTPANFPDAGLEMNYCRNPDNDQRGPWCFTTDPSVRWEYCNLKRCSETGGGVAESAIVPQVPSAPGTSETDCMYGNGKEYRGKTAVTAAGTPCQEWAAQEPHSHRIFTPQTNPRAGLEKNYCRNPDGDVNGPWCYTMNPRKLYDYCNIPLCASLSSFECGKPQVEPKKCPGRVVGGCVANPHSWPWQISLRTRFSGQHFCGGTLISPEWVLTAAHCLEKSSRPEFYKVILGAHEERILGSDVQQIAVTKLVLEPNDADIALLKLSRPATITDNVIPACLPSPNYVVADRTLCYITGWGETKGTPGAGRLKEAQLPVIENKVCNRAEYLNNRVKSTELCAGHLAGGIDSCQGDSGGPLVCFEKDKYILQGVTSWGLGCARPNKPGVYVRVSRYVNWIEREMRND
Experimental: Male Sprague Dawley rats (Charles River, average body weight 310 g, aged eight to nine weeks old) were housed in cages with a standard light cycle (12-h light, 12-h dark), at room temperature (22 ± 4 °C), with a relative humidity of 30–70%. Rats were identified by numbers on the cage cards. After arrival, rats were fed on a normal diet (Harlan Teklad diet 2014) and randomized to treatment groups (n = 5 per group) by baseline plasma plasminogen concentration and activity using a BRAT. LSN3441732 and LY3473329 were administered QD orally at three dose levels (3.7, 12.3 and 37 mg kg^−1; 3.2, 10.5 and 31.6 mg kg^−1 per dose, respectively) or vehicle (10 ml kg^−1, 1% HEC, 0.25% Tween-80, Antifoam) for four days. Terminal blood was drawn under general anaesthesia 24 h after the day-4 oral dose. Plasma samples were collected via the abdominal aorta into a premeasured anticoagulant BD Vacutainer used for blood collection (2.7 ml, buffered sodium citrate). The liver was flash frozen in liquid nitrogen. To measure plasminogen activity, 100 µl plasma per well was added to a 96-well plate (Corning) and the following were added to the indicated concentrations: 7.5 mM CaCl2 and 117 mM NaCl. Wells were mixed and warmed to 37 °C. Urokinase (Millipore) was added at 125 U per well and the plate was incubated at 37 °C for 4 min. The plasminogen substrate Chromogenix S-2251 (DiaPharma) was added to a concentration of 3.3 mM. The mixture was added and the plate was sealed and placed in a prewarmed plate reader, shaken, and the absorbance read every 30 s for 2 h. The maximum slope for each curve was determined and the percentage inhibition was calculated relative to untreated controls. Plasminogen protein was measured using ELISA kits for rat (Abcam ab157740) according to the manufacturer’s instructions. Plasminogen activity (percentage) and mass (µg ml^−1) in rat were analysed by ANOVA in JMP 16.1.0. The percentage reduction of plasminogen activity and mass for each treated group was compared with vehicle by Dunnett’s method.

[4] = 3441732 dose 3.7 mpk, 3.7 mg/kg
[5] = 3441732 dose 12.3 mpk, 12.3 mg/kg
[6] = 3473329 dose 3.2 mpk, 3.2 mg/kg
[7] = 3473329 dose 10.5 mpk, 10.5 mg/kg
[8] = 3473329 dose 31.6 mpk, 31.6 mg/kg

IC50 [1]: 0.18 nM
Kd [2]: < 15 nM
plasma levels of plasminogen protein ([3]; rats, oral dosing): decreased in a dose-dependent manner
SMILES: Cl.Cl.O=C(Nc1cccc(C[C@H](C(=O)O)[C@H]2CCNC2)c1)Nc1cccc(C[C@H](C(=O)O)[C@H]2CCNC2)c1 [LSN3441732]
PLG mass, Plasminogen (mean of replicates) [3, 4]: 199.7 µg/mL and 188.1 µg/mL and 194.6 µg/mL and 164.2 µg/mL and 177.8 µg/mL
PLG mass, Replicate 1 [3, 4]: 193.976 µg/mL and 187.308 µg/mL and 191.488 µg/mL and 158.900 µg/mL and 169.900 µg/mL
PLG mass, Replicate 2 [3, 4]: 205.500 µg/mL and 188.992 µg/mL and 197.772 µg/mL and 169.500 µg/mL and 185.664 µg/mL
PLG mass, Plasminogen (mean of replicates) [3, 5]: 192.7 µg/mL and 158.1 µg/mL and 151.7 µg/mL and 134.6 µg/mL and 119.3 µg/mL
PLG mass, Replicate 1 [3, 5]: 187.144 µg/mL and 151.612 µg/mL and 145.376 µg/mL and 127.920 µg/mL and 115.472 µg/mL
PLG mass, Replicate 2 [3, 5]: 198.344 µg/mL and 164.496 µg/mL and 157.928 µg/mL and 141.248 µg/mL and 123.088 µg/mL
PLG mass, Plasminogen (mean of replicates) ([3]; 3441732 dose 37 mpk, 37 mg/kg): 113.7 µg/mL and 124.7 µg/mL and 116.9 µg/mL and 125.1 µg/mL and 127.8 µg/mL
PLG mass, Replicate 1 ([3]; 3441732 dose 37 mpk, 37 mg/kg): 111.012 µg/mL and 118.768 µg/mL and 109.952 µg/mL and 121.004 µg/mL and 125.228 µg/mL
PLG mass, Replicate 2 ([3]; 3441732 dose 37 mpk, 37 mg/kg): 116.416 µg/mL and 130.704 µg/mL and 123.756 µg/mL and 129.140 µg/mL and 130.432 µg/mL

IC50 [1]: 0.09 nM
SMILES: O=C(O)[C@@H](Cc1cccc(CN(Cc2cccc(C[C@H](C(=O)O)[C@H]3CCNC3)c2)Cc2cccc(C[C@H](C(=O)O)[C@H]3CCNC3)c2)c1)[C@H]1CCNC1 [LY3473329]
PLG mass, Plasminogen (mean of replicates) [3, 6]: 281.7 µg/mL and 301.7 µg/mL and 249.5 µg/mL and 274.1 µg/mL and 246.9 µg/mL
PLG mass, Replicate 1 [3, 6]: 275.600 µg/mL and 301.472 µg/mL and 251.100 µg/mL and 270.384 µg/mL and 245.604 µg/mL
PLG mass, Replicate 2 [3, 6]: 287.828 µg/mL and 301.932 µg/mL and 247.992 µg/mL and 277.820 µg/mL and 248.160 µg/mL
PLG mass, Plasminogen (mean of replicates) [3, 7]: 239.9 µg/mL and 236.1 µg/mL and 242.7 µg/mL and 225.5 µg/mL and 223.8 µg/mL
PLG mass, Replicate 1 [3, 7]: 241.392 µg/mL and 228.556 µg/mL and 235.352 µg/mL and 212.812 µg/mL and 213.952 µg/mL
PLG mass, Replicate 2 [3, 7]: 238.436 µg/mL and 243.736 µg/mL and 249.956 µg/mL and 238.240 µg/mL and 233.564 µg/mL
PLG mass, Plasminogen (mean of replicates) [3, 8]: 199.2 µg/mL and 187.7 µg/mL and 187.4 µg/mL and 229.5 µg/mL and 225.0 µg/mL
PLG mass, Replicate 1 [3, 8]: 197.560 µg/mL and 179.928 µg/mL and 183.640 µg/mL and 229.888 µg/mL and 216.732 µg/mL
PLG mass, Replicate 2 [3, 8]: 200.844 µg/mL and 195.380 µg/mL and 191.112 µg/mL and 229.028 µg/mL and 233.256 µg/mL

Reference: PMC11111404, “Discovery of potent small-molecule inhibitors of lipoprotein(a) formation” (Nature, 2024)
